Measured values taken from patent US10414759B2, “Phenylthiazoles and uses thereof” (Purdue Research Foundation, priority 2017, dated 2019).
In brackets after ≈: the same amount, converted by molar mass. Where two headings read alike, the source gives them in different places.

How the values were obtained:
[1] = PBS solubility screen (turbidometric); type: physicochemical; conditions: aqueous buffer, kinetic from dmso stock
Description: The solutions were diluted 100-fold into PBS in a 96-well plate and mixed. The absorbance of the PBS-containing plate was measured prior to addition of the test agents to determine the background absorbance. After 2 h, the presence of precipitate was detected by turbidity (absorbance at 540 nm). […] The solubility limit is reported as the highest experimental concentration with no evidence of turbidity.

[2] = Plasma pharmacokinetics after single oral dose in rats; type: in vivo, Sprague-Dawley (SD) rats
Description: This assay has been conducted at a credited bioequivalence center (http://www.grc-me.com/pk_pd.html). Pharmacokinetic studies were performed in male naïve Sprague-Dawley (SD) rats, (three animals) following Institutional Animal Care and Use Committee guidelines. Oral dosing was administered by gavage in a vehicle containing 5% ethanol, 45% PEG 400, and 50% water. Blood samples were collected over a 24 h period post dose into Vacutainer tubes containing EDTA-K2. Plasma was isolated, and the concentration of compound 17 in plasma was determined with LC/MS/MS after protein precipitation with acetonitrile.
Non-compartmental pharmacokinetic analysis was performed on plasma concentration data to calculate pharmacokinetic parameters using Kinetica® 2000 (release 4.4.1).

NRS72 (MSSA) = assay: MIC/MBC clinical isolate panel (Table 3); type: cell-based, S. aureus; conditions: Staphylococcus aureus, Table 3, NRS72 (MSSA)
Description: (§1) Bacteria were cultured in cation-adjusted Mueller Hinton broth in a 96-well plate. Compounds, using triplicate samples, were added to the plate and serially diluted. […] Plates were visually inspected and the MIC was categorized as the concentration at which no visible growth of bacteria was observed. The average of triplicate MIC determinations is reported.
(§2) A bacterial solution equivalent to 0.5 McFarland standard was prepared and diluted in cation-adjusted Mueller-Hinton broth (CAMHB) to achieve a bacterial concentration of about 5×10^5 CFU/mL and seeded in 96-well plates. Enterococcus faecium was diluted in brain heart infusion broth. Enterococcus faecalis, Streptococcus pneumonia and Listeria monocytogenes were diluted in tryptone soya broth (TSB).

NRS382 (MRSA USA100) = assay: MIC/MBC clinical isolate panel (Table 3); type: cell-based, S. aureus; conditions: Staphylococcus aureus, Table 3, NRS382 (MRSA USA100)
Description: as §1, §2

NRS383 (MRSA USA200) = assay: MIC/MBC clinical isolate panel (Table 3); type: cell-based, S. aureus; conditions: Staphylococcus aureus, Table 3, NRS383 (MRSA USA200)
Description: as §1, §2

NRS123 (MRSA USA400) = assay: MIC/MBC clinical isolate panel (Table 3); type: cell-based, S. aureus; conditions: Staphylococcus aureus, Table 3, NRS123 (MRSA USA400)
Description: as §1, §2

NRS119 (MRSA) = assay: MIC/MBC clinical isolate panel (Table 3); type: cell-based, S. aureus; conditions: Staphylococcus aureus, Table 3, NRS119 (MRSA)
Description: as §1, §2

VRSA10 = assay: MIC/MBC clinical isolate panel (Table 3); type: cell-based, S. aureus; conditions: Staphylococcus aureus, Table 3, VRSA10
Description: as §1, with “MRSA clinical isolates, and vancomycin-resistant Staphylococcus aureus (VRSA) strain were obtained through the Network of Antimicrobial Resistance in Staphylococcus aureus (NARSA) program. In addition, vancomycin-resistant Enterococcus faecium (VRE) strain was obtained from the ATCC. Bacteria” for “Bacteria”
(§3) The minimum inhibitory concentration (MIC) of tested compounds and control antibiotics were determined using the broth microdilution method in accordance with the recommendations contained in the Clinical and Laboratory Standards Institute guidelines, against methicillin-sensitive (ATCC 6538 and NRS107), methicillin-resistant (MRSA), and vancomycin-resistant (VRSA) Staphylococcus aureus, Staphylococcus epidermidis, Enterococcus faecalis, E. faecium, Listeria monocytogenes, and Streptococcus pneumoniae clinical isolates. A bacterial solution equivalent to 0.5 McFarland standard was prepared and diluted in cation-adjusted Mueller-Hinton broth (CAMHB) to achieve a bacterial concentration of about 5×10^5 CFU/mL and seeded in 96-well plates. Enterococcus faecium was diluted in brain heart infusion broth. Enterococcus faecalis, Streptococcus pneumonia and Listeria monocytogenes were diluted in tryptone soya broth (TSB). Compounds and control drugs were added in the first row of 96-well plates and serially diluted (to achieve a concentration gradient ranging from 128 to 1 μg/mL). Plates were then incubated aerobically at 37° C. for at least 18 hours. The minimum bactericidal concentration (MBC) of the active compounds was tested by plating 5 μL from wells with no growth onto Tryptic soy agar (TSA) plates.

[3] = Metabolic stability in human liver microsomes; type: in vitro ADME; conditions: pH 7.4, human liver microsomes
Description: The tested compounds were incubated in duplicate with human liver microsomes at 37° C. The reaction contained microsomal protein in 100 mM potassium phosphate, 2 mM NADPH, 3 mM MgCl2, pH 7.4. A control was run for each test agent omitting NADPH to detect NADPH-free degradation. At 0, 10, 20, 40, and 60 minutes, an aliquot was removed from each experimental and control reaction and mixed with an equal volume of ice-cold Stop Solution (methanol containing haloperidol, diclofenac, or other internal standard). Stopped reactions are incubated at least ten minutes at −20° C., and an additional volume of water was added. The samples were centrifuged to remove precipitated protein, and the supernatants were analyzed by LC/MS/MS to quantitate the remaining parent. Data are converted to % remaining by dividing by the time zero concentration value. Data are fit to a first-order decay model to determine half-life. Intrinsic clearance is calculated from the half-life and the protein concentrations: CLint=ln(2)/(T1/2 [microsomal protein]).

MRSA (2658 RCMB) = assay: MIC against MRSA (2658 RCMB), broth dilution; type: cell-based, Staphylococcus aureus
In short: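 Broth dilution in cation-adjusted Mueller-Hinton broth with an inoculum of about 5×10^5 CFU/mL (from a 0.5 McFarland suspension), using triplicate serial dilutions. MIC was the lowest concentration with no visible growth by visual inspection, reported as the mean of triplicates.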

VRE ATCC 700221 = assay: MIC/MBC clinical isolate panel (Table 3); type: cell-based, Enterococcus faecium; conditions: Enterococcus, Table 3, VRE ATCC 700221
Description: as §1, with “MRSA clinical isolates, and vancomycin-resistant Staphylococcus aureus (VRSA) strain were obtained through the Network of Antimicrobial Resistance in Staphylococcus aureus (NARSA) program. In addition, vancomycin-resistant Enterococcus faecium (VRE) strain was obtained from the ATCC. Bacteria” for “Bacteria”
as §3

[4] = Table 6, single oral dose (30 mg/Kg) to rats
[5] = male, Sprague-Dawley, rat, plasma, Table 6, single oral dose (30 mg/Kg) to rats

Q: Which results are given for `CCCCc1ccc(-c2nc(C)c(-c3ccnc(NN)n3)s2)cc1` [Compound 17, 2-(4-Butylphenyl)-5-(2-hydrazinopyrimidin-4-yl)-4-methylthiazole]?
A: solubility at 2 h [1]: 55 µM (≈ 18.7 µg/mL); thalf [2, 4]: 8.24 h; λz [2, 4]: 0.19 h⁻¹; MRT ([2]; male, Sprague-Dawley, rat, plasma, po, text b112, SD rats, 50 mg/Kg orally, read-out: in vivo mean residence time (MRT)): ~8 h; AUC [2, 5]: 100000 ng·h/mL; AUC(0-t) [2, 5]: 83200 ng·h/mL; Tmax [2, 5]: 4.67 h; MRT ([2]; male, Sprague-Dawley, rat, plasma, Table 6, single oral dose (30 mg/Kg) to rats, read-out: MRT (mean residence time)): 7.74 h; Cmax ([2]; male, Sprague-Dawley, rat, po, text b112, SD rats, 50 mg/Kg orally, plasma): 9300 ng/mL; Cmax ([2]; male, Sprague-Dawley, rat, Table 6, single oral dose (30 mg/Kg) to rats, plasma): 9330 ng/mL; MBC (NRS72 (MSSA)): 8 µg/mL (≈ 23.6 µM); MIC (NRS72 (MSSA); read-out: MIC): 2 µg/mL (≈ 5.89 µM); MBC (NRS382 (MRSA USA100)): 4 µg/mL (≈ 11.8 µM); MIC (NRS382 (MRSA USA100); read-out: MIC): 2 µg/mL (≈ 5.89 µM); MBC (NRS383 (MRSA USA200)): 2 µg/mL (≈ 5.89 µM); MIC (NRS383 (MRSA USA200); read-out: MIC): 2 µg/mL (≈ 5.89 µM); MBC (NRS123 (MRSA USA400)): 2 µg/mL (≈ 5.89 µM); MIC (NRS123 (MRSA USA400); read-out: MIC): 2 µg/mL (≈ 5.89 µM); MBC (NRS119 (MRSA)): 2 µg/mL (≈ 5.89 µM); MIC (NRS119 (MRSA); read-out: MIC): 2 µg/mL (≈ 5.89 µM); MBC (VRSA10; read-out: MBC): 2 µg/mL (≈ 5.89 µM); MIC (VRSA10; read-out: MIC): 1 µg/mL (≈ 2.95 µM); microsomal CLint ([3]; NADPH omitted, read-out: NADPH-free Clint): 0.5 µL/min/mg; half-life ([3]; NADPH omitted, read-out: NADPH-free t1/2): > 1 h; microsomal CLint ([3]; with NADPH, read-out: NADPH-dependent CLint): 3 to 7.5 µL/min/mg; half-life ([3]; with NADPH, read-out: NADPH-dependent t1/2): 5.13 h; improvement in MIC value compared with lead compound 1 (MRSA (2658 RCMB); MRSA (2658 RCMB)): 12 fold; MIC (MRSA (2658 RCMB); Staphylococcus aureus, Table 1, MRSA (2658 RCMB), read-out: MIC ± SD): 0.4 µg/mL (≈ 1.18 µM); antibacterial (anti-MRSA) activity, in words (MRSA (2658 RCMB); Table 1): more potent than vancomycin; MIC ± SD (MRSA (2658 RCMB); Table 1, MRSA (2658 RCMB)): 0.40 ± 0.0 µg/mL (≈ 1.18 µM); MBC (VRE ATCC 700221; read-out: MBC): 8 µg/mL (≈ 23.6 µM); MIC (VRE ATCC 700221; read-out: MIC): 2 µg/mL (≈ 5.89 µM)
